Measurements published in US7524846B2, “Arylalkyl- and cycloalkylalkyl-piperazine derivatives and methods of their use” (Wyeth, priority 2003, dated 2009).
Counter-ions that a name gives are not always drawn.

Target: T1, hNET (Homo sapiens, UniProt P23975)
T1 construct: expressed in transfected cells; host or cells: MDCK-Net6 (MDCK cells stably transfected with hNET)
Test: Norepinephrine (NE) uptake assay in MDCK-Net6 cells
Format: cell-based
Settings: [3H]NE uptake, MDCK-Net6 cells stably transfected with human hNET; for inhibition at 1 µM: 1 μM test compound; for EC50: test range 1 to 10,000 nM
Procedure: MDCK-Net6 cells, stably transfected with human hNET (Pacholczyk, T., R. D. Blakely, and S. G. Amara, Nature, 1991, 350(6316): p. 350-4) were cultured in growth medium containing high glucose DMEM (Gibco, Cat. No. 11995), 10% FBS (dialyzed, heat-inactivated, US Bio-Technologies, Lot FBD1129HI) and 500 μg/ml G418 (Gibco, Cat. No. 10131). Cells were plated at 300,000/T75 flask and cells were split twice weekly. The JAR cell line (human placental choriocarcinoma) was purchased from ATCC (Cat. No. HTB-144). The cells were cultured in growth medium containing RPMI 1640 (Gibco, Cat. No. 72400), 10% FBS (Irvine, Cat. No. 3000), 1% sodium pyruvate (Gibco, Cat. No. 1136) and 0.25% glucose. Cells were plated at 250,000 cells/T75 flask and split twice weekly. For all assays, cells were plated in Wallac 96-well sterile plates (PerkinElmer, Cat. No. 3983498).
On day 1, cells were plated at 3,000 cells/well in growth medium and maintained in a cell incubator (37° C., 5% CO2). On day 2, growth medium was replaced with 200 μl of assay buffer (25 mM HEPES; 120 mM NaCl; 5 mM KCl; 2.5 mM CaCl2; 1.2 mM MgSO4; 2 mg/ml glucose (pH 7.4, 37° C.)) containing 0.2 mg/ml ascorbic acid and 10 μM pargyline. Plates containing cells with 200 μl of assay buffer were equilibrated for 10 minutes at 37° C. prior to addition of compounds. A stock solution of desipramine was prepared in DMSO (10 mM) and delivered to triplicate wells containing cells for a final test concentration of 1 μM. Data from these wells were used to define non-specific NE uptake (minimum NE uptake). Test compounds were prepared in DMSO (10 mM) and diluted in assay buffer according to test range (1 to 10,000 nM). Twenty-five microliters of assay buffer (maximum NE uptake) or test compound were added directly to triplicate wells containing cells in 200 μl of assay buffer. The cells in assay buffer with test compounds were incubated for 20 minutes at 37° C. To initiate the NE uptake, [^3H]NE diluted in assay buffer (120 nM final assay concentration) was delivered in 25 μl aliquots to each well and the plates were incubated for 5 minutes (37° C.). The reaction was terminated by decanting the supernatant from the plate. The plates containing cells were washed twice with 200 μl assay buffer (37° C.) to remove free radioligand. The plates were then inverted, left to dry for 2 minutes, then reinverted and air-dried for an additional 10 minutes. The cells were lysed in 25 μl of 0.25 N NaOH solution (4° C.), placed on a shake table and vigorously shaken for 5 minutes. After cell lysis, 75 μl of scintillation cocktail was added to each well and the plates were sealed with film tape. The plates were returned to the shake table and vigorously shaken for a minimum of 10 minutes to ensure adequate partitioning of organic and aqueous solutions. The plates were counted in a Wallac Microbeta counter (PerkinElmer) to collect the raw cpm data.
For each experiment, a data stream of cpm values collected from the Wallac Microbeta counter was downloaded to a Microsoft Excel statistical application program. Calculations of EC50 values were made using the transformed-both-sides logistic dose response program written by Wyeth Biometrics Department. The statistical program uses mean cpm values from wells representing maximum binding or uptake (assay buffer) and mean cpm values from wells representing minimum binding or uptake ((1 μM desipramine (hNET) or 1 μM paroxetine (hSERT)). Estimation of the EC50 value was completed on a log scale and the line was fit between the maximum and minimum binding or uptake values. All graphic data representation was generated by normalizing each data point to a mean percent based on the maximum and minimum binding or uptake values. The EC50 values reported from multiple experiments were calculated by pooling the raw data from each experiment and analyzing the pooled data as one experiment.

T1 sequence (P23975 whole entry): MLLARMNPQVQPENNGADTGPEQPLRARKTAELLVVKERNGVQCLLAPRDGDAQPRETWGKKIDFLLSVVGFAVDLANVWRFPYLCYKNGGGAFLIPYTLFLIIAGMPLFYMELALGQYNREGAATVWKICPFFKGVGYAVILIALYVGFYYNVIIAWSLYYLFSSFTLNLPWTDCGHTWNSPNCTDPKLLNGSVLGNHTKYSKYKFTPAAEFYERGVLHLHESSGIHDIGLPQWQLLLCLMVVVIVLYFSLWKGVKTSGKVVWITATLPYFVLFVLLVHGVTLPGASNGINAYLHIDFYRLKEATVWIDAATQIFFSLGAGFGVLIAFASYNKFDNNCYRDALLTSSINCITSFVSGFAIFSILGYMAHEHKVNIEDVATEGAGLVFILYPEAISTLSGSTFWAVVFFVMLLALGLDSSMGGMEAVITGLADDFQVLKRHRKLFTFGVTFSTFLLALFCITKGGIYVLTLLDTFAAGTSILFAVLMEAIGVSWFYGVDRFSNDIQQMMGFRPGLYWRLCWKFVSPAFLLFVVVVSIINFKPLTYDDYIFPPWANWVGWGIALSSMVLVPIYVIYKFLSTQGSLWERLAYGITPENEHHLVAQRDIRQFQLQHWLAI

Row | inhibition at 1 µM | EC50 | Structure (SMILES)
1 | 87% | 61 nM | COc1ccc2cc(CN3CCN(CC(c4cccc(Cl)c4)C4(O)CCCCC4)CC3)ccc2c1 (stereo not drawn) [Example 117, 1-(1-(3-chlorophenyl)-2-{4-[(6-methoxy-2-naphthyl)methyl]piperazin-1-yl}ethyl)cyclohexanol dihydrochloride]
2 | 97% | 57 nM | OC1(C(CN2CCN(CC3CC3)CC2)c2cccc(Cl)c2)CCCCC1 (stereo not drawn) [Example 118, 1-{1-(3-chlorophenyl)-2-[4-(cyclopropylmethyl)piperazin-1-yl]ethyl}cyclohexanol dihydrochloride]
3 | 97% | 110 nM | OC1(C(CN2CCN(CC3CC=CCC3)CC2)c2cccc(Cl)c2)CCCCC1 (stereo not drawn) [Example 119, 1-{1-(3-chlorophenyl)-2-[4-(cyclohex-3-en-1-ylmethyl)piperazin-1-yl]ethyl}cyclohexanol dihydrochloride]
4 | 97% | 130 nM | OC1CCCC(CN2CCN(CC(c3cccc(Cl)c3)C3(O)CCCCC3)CC2)O1 (stereo not drawn) [Example 120, 6-({4-[2-(3-chlorophenyl)-2-(1-hydroxycyclohexyl)ethyl]piperazin-1-yl}methyl)tetrahydro-2H-pyran-2-ol dihydrochloride]
5 | 97% | 22 nM | CC(CCN1CCN(CC(c2cccc(Cl)c2)C2(O)CCCCC2)CC1)c1ccccc1 (stereo not drawn) [Example 121, 1-{1-(3-chlorophenyl)-2-[4-(3-phenylbutyl)piperazin-1-yl]ethyl}cyclohexanol dihydrochloride]
6 | 96% | 75 nM | OC1(C(CN2CCN(CCc3ccccc3)CC2)c2cccc(Cl)c2)CCCCC1 (stereo not drawn) [Example 122, 1-{1-(3-chlorophenyl)-2-[4-(2-phenylethyl)piperazin-1-yl]ethyl}cyclohexanol dihydrochloride]
7 | 96% | 290 nM | OC1(C(CN2CCN(Cc3cccc(Oc4ccccc4)c3)CC2)c2cccc(Cl)c2)CCCCC1 (stereo not drawn) [Example 123, 1-{1-(3-chlorophenyl)-2-[4-(3-phenoxybenzyl)piperazin-1-yl]ethyl}cyclohexanol dihydrochloride]
8 | 94% | 190 nM | OC1(C(CN2CCN(Cc3ccc4ccccc4c3)CC2)c2cccc(Cl)c2)CCCCC1 (stereo not drawn) [Example 124, 1-{1-(3-chlorophenyl)-2-[4-(2-naphthylmethyl)piperazin-1-yl]ethyl}cyclohexanol dihydrochloride]
9 | 93% | 120 nM | OC1(C(CN2CCN(Cc3ccoc3)CC2)c2cccc(Cl)c2)CCCCC1 (stereo not drawn) [Example 125, 1-{1-(3-chlorophenyl)-2-[4-(3-furylmethyl)piperazin-1-yl]ethyl}cyclohexanol dihydrochloride]
10 | 93% | 130 nM | OC1(C(CN2CCN(CC3CCCCC3)CC2)c2cccc(Cl)c2)CCCCC1 (stereo not drawn) [Example 126, 1-{1-(3-chlorophenyl)-2-[4-(cyclohexylmethyl)piperazin-1-yl]ethyl}cyclohexanol dihydrochloride]
11 | 86% | 92 nM | OC1(C(CN2CCN(Cc3ccnc4ccccc34)CC2)c2cccc(Cl)c2)CCCCC1 (stereo not drawn) [Example 127, 1-{1-(3-chlorophenyl)-2-[4-(quinolin-4-ylmethyl)piperazin-1-yl]ethyl}cyclohexanol dihydrochloride]
12 | 83% | 490 nM | CCc1ccc(CN2CCN(CC(c3cccc(Cl)c3)C3(O)CCCCC3)CC2)o1 (stereo not drawn) [Example 128, 1-(1-(3-chlorophenyl)-2-{4-[(5-ethyl-2-furyl)methyl]piperazin-1-yl}ethyl)cyclohexanol dihydrochloride]
13 | 81% | 430 nM | CC(CN1CCN(CC(c2cccc(Cl)c2)C2(O)CCCCC2)CC1)c1ccccc1 (stereo not drawn) [Example 129, 1-{1-(3-chlorophenyl)-2-[4-(2-phenylpropyl)piperazin-1-yl]ethyl}cyclohexanol dihydrochloride]
14 | 79% | 890 nM | OC1(C(CN2CCN(Cc3cc4ccccc4o3)CC2)c2cccc(Cl)c2)CCCCC1 (stereo not drawn) [Example 130, 1-[2-[4-(1-benzofuran-2-ylmethyl)piperazin-1-yl]-1-(3-chlorophenyl)ethyl]cyclohexanol dihydrochloride]
15 | 78% | 170 nM | OC1(C(CN2CCN(Cc3ccc(OCc4ccccc4)cc3)CC2)c2cccc(Cl)c2)CCCCC1 (stereo not drawn) [Example 131, 1-[2-{4-[4-(benzyloxy)benzyl]piperazin-1-yl}-1-(3-chlorophenyl)ethyl]cyclohexanol dihydrochloride]
16 | 77% | 70 nM | OC1(C(CN2CCN(Cc3ccc(Oc4ccccc4)cc3)CC2)c2cccc(Cl)c2)CCCCC1 (stereo not drawn) [Example 132, 1-{1-(3-chlorophenyl)-2-[4-(4-phenoxybenzyl)piperazin-1-yl]ethyl}cyclohexanol dihydrochloride]
17 | 77% | 460 nM | OC1(C(CN2CCN(Cc3ccncc3)CC2)c2cccc(Cl)c2)CCCCC1 (stereo not drawn) [Example 133, 1-{1-(3-chlorophenyl)-2-[4-(pyridin-4-ylmethyl)piperazin-1-yl]ethyl}cyclohexanol dihydrochloride]
18 | 69% | 930 nM | OC1(C(CN2CCN(Cc3cccnc3)CC2)c2cccc(Cl)c2)CCCCC1 (stereo not drawn) [Example 134, 1-{1-(3-chlorophenyl)-2-[4-(pyridin-3-ylmethyl)piperazin-1-yl]ethyl}cyclohexanol dihydrochloride]
